Measurements published in patent US9458172B2, “Pyridinyl and pyrimidinyl sulfoxide and sulfone derivatives” (priority 2012, dated 2016).
Read-outs that look alike come from different tables or passages of the source.

What was measured:
tumor cell lines = conditions: broad range of tumor cell lines; cited from earlier work
A2780 cells = experiment: In-Vitro Cell Proliferation Assay (SRB); conditions: Homo sapiens, A2780, 72 h
NAMPT = NAMPT (Homo sapiens (Human), UniProt P43490); experiment: Biochemical Inhibition Assay (NAMPT enzymatic reaction, NMN quantified by mass spectrometry); conditions: 33 nM recombinant His-tagged NAMPT, 1 μM NAM, 30 min at rt
Sequence of NAMPT (P43490 whole entry): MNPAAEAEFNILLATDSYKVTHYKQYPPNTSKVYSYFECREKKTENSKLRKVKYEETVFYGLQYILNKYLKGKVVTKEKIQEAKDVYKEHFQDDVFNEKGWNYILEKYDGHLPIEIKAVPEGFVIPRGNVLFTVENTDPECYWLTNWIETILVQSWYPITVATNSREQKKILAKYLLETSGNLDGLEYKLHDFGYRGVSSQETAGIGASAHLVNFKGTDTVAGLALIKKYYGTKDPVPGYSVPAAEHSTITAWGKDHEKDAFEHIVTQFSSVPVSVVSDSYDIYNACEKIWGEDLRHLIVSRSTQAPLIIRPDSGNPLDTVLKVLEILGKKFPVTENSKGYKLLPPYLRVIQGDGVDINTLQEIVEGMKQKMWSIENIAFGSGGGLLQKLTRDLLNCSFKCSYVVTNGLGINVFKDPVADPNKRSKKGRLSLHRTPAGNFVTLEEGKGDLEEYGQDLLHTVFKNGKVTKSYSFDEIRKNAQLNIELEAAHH
Summary of the method: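 His-tagged human NAMPT from E. coli preincubated 15 min at rt with compound in 50 mM Hepes pH 7.5, 50 mM NaCl, 5 mM MgCl2, 1 mM THP, then reacted 30 min at rt with 1 μM NAM, […] PRPP, 2.5 mM ATP. NMN quantified by RapidFire mass spectrometry, normalized to L-Cystathionine, background subtracted.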

mouse mammary carcinoma = mouse mammary carcinoma model; cited from earlier work
[1] = read-out: Cell Proliferation (IC50)
[2] = read-out: Cell Proliferation (IC50), A2780 cells, 72 h, sulforhodamine B

Structure (SMILES) | IC50 (A2780 cells; [1]) [nM] | IC50 (NAMPT) [nM] | further results
N#CN=C(NCCCCCCOc1ccc(Cl)cc1)Nc1ccncc1 [CHS-828] |  |  | cell growth (tumor cell lines): potently inhibit cell growth
O=C(NCc1ccc(S(=O)(=O)N2CCCCC2)cn1)N1Cc2cn[nH]c2C1 [Example 180, N-[[5-(1-piperidylsulfonyl)-2-pyridyl]methyl]-4,6-dihydro-1H-pyrrolo[3,4-c]pyrazole-5-carboxamide] | 2000 | 562 | 
O=C(NCc1ncc(S(=O)(=O)c2cc(F)cc(F)c2)cn1)c1cc2ccncc2o1 [Example 182, N-[[5-(3,5-difluorophenyl)sulfonyl-pyrimidin-2-yl]methyl]furo[2,3-c]pyridine-2-carboxamide] | 40.5 | 25.1 | 
O=C(NCc1ccc(S(=O)(=O)c2ccccc2)cn1)c1ccc2nccn2c1 [Example 184, N-[[5-(benzenesulfonyl)-2-pyridyl]methyl]imidazo[1,2-a]pyridine-6-carboxamide] |  | 99.2 | IC50 (A2780 cells; [2]): 2000 nM
O=C(NCc1ccc(S(=O)(=O)c2ccccc2)cn1)c1cnc2nccn2c1 [Example 185, N-[[5-(benzenesulfonyl)-2-pyridyl]methyl]imidazo[1,2-a]pyrimidine-6-carboxamide] | 495 | 20.2 | 
O=C(NCc1ccc(S(=O)(=O)c2ccccc2)cn1)c1cc2ccncc2s1 [Example 186, N-[[5-(benzenesulfonyl)-2-pyridyl]methyl]thieno[2,3-c]pyridine-2-carboxamide] |  | 125 | IC50 (A2780 cells; [2]): 918 nM
O=C(NCc1ncc(S(=O)(=O)c2ccccc2)cn1)c1cc2ccncc2s1 [Example 187, N-[[5-(benzenesulfonyl)pyrimidin-2-yl]methyl]thieno[2,3-c]pyridine-2-carboxamide] | 2000 | 433 | 
O=C(/C=C/c1cccnc1)NCCCCC1CCN(C(=O)c2ccccc2)CC1 [FK866] |  |  | NAD levels (mouse mammary carcinoma): reduce NAD levels; tumor growth (mouse mammary carcinoma): induce a delay in tumor growth; tumor radiosensitivity (mouse mammary carcinoma): enhance tumor radiosensitivity
